The text below walks through data of patent US20160030391A1, “METHODS AND COMPOSITIONS FOR IMPROVING COGNITIVE FUNCTION” (THE JOHNS HOPKINS UNIVERSITY, priority 2013, published 2016).

The subject of assay [1] is ventral tegmental dopamine (DA) neurons of MAM rats. Conditions: cited from earlier work.
Another assay concerns MAM-treated rats. The following applies: cited from earlier work.
The test system of assay [2] is HPC neurons in saline-treated and MAM-treated animals. The following applies: cited from earlier work.
For assay [3], the system named is Memory-impaired aged rats. The assay is described as follows: Radial Arm Maze task, 2-hr delay, acute brivaracetam or seletracetam. It counts as in vivo, rat. The following applies: 0.0625-4 mg/kg i.p. 30-40 min prior to test sessions; repeated measures ANOVA. How it is done: (§1) The radial arm maze experiments used acute administration of seletracetam (0-4 mg/kg), brivaracetam (0-4 mg/kg), or saline vehicle given by intraperitoneal injection (in a volume of 1 ml/kg) 30-40 min prior to test sessions. In the chronic treatment experiment, memory-impaired aged rats were implanted subcutaneously in the intrascapular region with osmotic mini-pumps (ALZET, Durect Corporation, Cupertino, Calif.) with brivaracetam (2 mg/kg/day) or saline vehicle starting two weeks prior to assessment in the water maze.
A radial arm maze (RAM) task was used to assess effects of acute drug treatment with seletracetam and brivaracetam. This protocol allowed within-subject assessment across drugs at different doses. The radial maze consisted of eight arms projecting from each side of an octagonal center platform, with a food well located at the distal end of each arm. Plexiglas blocks could be positioned to prevent entry into any arm. Extra-maze cues were provided in the room surrounding the maze and illumination was provided by an overhead light.
Pre-training, as described in detail in Chappell et al. Neuropharmacology 37: 481-487, (1998), consisted of habituation, standard win-shift training, and win-shift training with delays interposed between information and memory test phases. […]

Assay [4] concerns Memory-impaired aged rats. The assay is described as follows: water maze probe test after chronic brivaracetam (osmotic mini-pumps). The following applies: brivaracetam 2 mg/kg/day, 14 days. It counts as in vivo, rat. The procedure: as §1
Rats were trained and tested in a novel water maze environment to assess the effect of drug treatment. The water maze used here was housed in a different building and was surrounded by curtains with a novel set of patterns relative to the maze used for initial assessment of cognitive status. The training protocol consisted of 6 trials per day for 2 days to locate a submerged escape platform. On each trial, a rat was released in the maze from one of four equally spaced starting positions around the perimeter of the pool. The starting position varied from trial to trial. […] The rat was then removed from the platform and placed in a holding cage for another 40 s before the next trial. Approximately 24 hr after the last training trial, a probe test in the absence of the escape platform was given to assess spatial memory.

For `C#Cc1ccc2c(c1)C(c1ccccc1F)=N[C@H](C)c1c(C(=O)OCC)ncn1-2` [SH-053-2′F—R—CH3], the “number of spontaneously active DA neurons in the ventral tegmental area (VTA) of MAM rats” value in assay [1] (administered systemically and directly infused into the ventral HPC) was “reduces”. Also, the “increased locomotor response to amphetamine in MAM-treated rats” value with MAM-treated rats (following the α5GABAAR PAM treatment) was “reduced”. In addition, the “cortical-evoked responses of HPC neurons” value in assay [2] is “diminished”.
In the case of `NC1=N[C@H](O)[C@H]2[C@H]3O[C@]4(O)O[C@@H]([C@@H](O)[C@@]2(N1)[C@@H]4O)[C@]3(O)CO` [TTX, tetrodotoxin], the “elevated DA neuron population activity” value in assay [1] (rat, in vivo) is “completely reversed”. Besides, the “augmented amphetamine-induced locomotor behavior” value in the assay with MAM-treated rats (rat, in vivo) is given as “normalized”.
On to `CCC[C@@H]1CC(=O)N([C@@H](CC)C(N)=O)C1` [brivaracetam], for which, in assay [3], the “number of errors in the retention phase after the 2-hr delay, effect of dose” value is recorded as “significant effect as a function of dose”. In assay [4], the “spatial bias for the target quadrant compared to the other quadrants” value was “significant spatial bias”, the “time in the target annulus vs vehicle-treated rats” value was “significantly more time” and the “time in the target quadrant vs vehicle-treated rats” value was “significantly more time”.
On to `CC[C@@H](C(N)=O)N1C[C@H](C=C(F)F)CC1=O` [seletracetam], for which the “number of errors in the retention phase after the 2-hr delay, effect of dose” value in assay [3] is listed as “significant effect as a function of dose”.
